Assay results: the NIST ThermoML archive (doi:10.1016/j.jct.2017.03.033)
± gives the expanded uncertainty stated by the source.

Assay: molar heat capacity at constant pressure
Conditions: Liquid, Flow calorimetry

CC(C)C [2-methylpropane]
Conditions | molar heat capacity at constant pressure [J/K/mol]
303.53 K, 1050 kPa | 142.52 ± 2.8
303.55 K, 1540 kPa | 141.88 ± 2.8
303.56 K, 2000 kPa | 141.53 ± 2.8
303.56 K, 3020 kPa | 140.13 ± 2.8
303.57 K, 2500 kPa | 140.83 ± 2.8
303.59 K, 9990 kPa | 135.77 ± 2.7
303.62 K, 4030 kPa | 139.55 ± 2.8
303.62 K, 4500 kPa | 139.32 ± 2.8
303.62 K, 6500 kPa | 138.1 ± 2.8
303.62 K, 7990 kPa | 136.88 ± 2.7
303.63 K, 6010 kPa | 138.45 ± 2.8
303.63 K, 7030 kPa | 137.69 ± 2.8
303.63 K, 7530 kPa | 137.34 ± 2.7
303.63 K, 8510 kPa | 136.7 ± 2.7
303.63 K, 9510 kPa | 136.24 ± 2.7
303.64 K, 5000 kPa | 139.03 ± 2.8
303.64 K, 9000 kPa | 136.47 ± 2.7
303.65 K, 5520 kPa | 138.8 ± 2.8
303.7 K, 3480 kPa | 139.78 ± 2.8
303.82 K, 11510 kPa | 134.38 ± 2.7
303.82 K, 12000 kPa | 134.2 ± 2.7
303.86 K, 10530 kPa | 135.37 ± 2.7
303.86 K, 11040 kPa | 134.96 ± 2.7
313.48 K, 1040 kPa | 142.81 ± 2.8
313.48 K, 6480 kPa | 138.39 ± 2.8
313.49 K, 3020 kPa | 141.12 ± 2.8
313.49 K, 7500 kPa | 138.1 ± 2.8
313.5 K, 5530 kPa | 139.09 ± 2.8
313.5 K, 6030 kPa | 138.56 ± 2.8
313.5 K, 7030 kPa | 138.27 ± 2.8
313.5 K, 8040 kPa | 137.81 ± 2.8
313.5 K, 8480 kPa | 137.69 ± 2.8
313.51 K, 1540 kPa | 142.46 ± 2.8
313.51 K, 2020 kPa | 141.93 ± 2.8
313.51 K, 2540 kPa | 141.53 ± 2.8
313.51 K, 4010 kPa | 140.6 ± 2.8
313.51 K, 9020 kPa | 137.52 ± 2.7
313.52 K, 4500 kPa | 140.07 ± 2.8
313.52 K, 9480 kPa | 137.34 ± 2.7
313.52 K, 10060 kPa | 137.28 ± 2.7
313.54 K, 5080 kPa | 139.26 ± 2.8
313.55 K, 10530 kPa | 136.59 ± 2.7
313.57 K, 11480 kPa | 136.3 ± 2.7
313.57 K, 12050 kPa | 136.12 ± 2.7
313.58 K, 3550 kPa | 140.95 ± 2.8
313.58 K, 11070 kPa | 136.47 ± 2.7
323.11 K, 1040 kPa | 146.53 ± 3
323.16 K, 1510 kPa | 146.24 ± 2.9
323.22 K, 2020 kPa | 145.77 ± 2.9
323.23 K, 3510 kPa | 144.03 ± 2.9
323.24 K, 2540 kPa | 145.01 ± 2.9
323.25 K, 3020 kPa | 144.49 ± 2.9
323.25 K, 4020 kPa | 143.62 ± 2.9
323.27 K, 10500 kPa | 139.49 ± 2.8
323.28 K, 4550 kPa | 143.33 ± 2.8
323.28 K, 10980 kPa | 139.44 ± 2.8
323.3 K, 4970 kPa | 143.04 ± 2.8
323.31 K, 11540 kPa | 139.38 ± 2.8
323.32 K, 5500 kPa | 142.69 ± 2.8
323.32 K, 5980 kPa | 142.17 ± 2.8
323.33 K, 6470 kPa | 141.7 ± 2.8
323.33 K, 7020 kPa | 141.3 ± 2.8
323.34 K, 11990 kPa | 139.2 ± 2.8
323.35 K, 7470 kPa | 141.24 ± 2.8
323.37 K, 7990 kPa | 141 ± 2.8
323.37 K, 9480 kPa | 140.07 ± 2.8
323.38 K, 8510 kPa | 140.77 ± 2.8
323.38 K, 9990 kPa | 139.67 ± 2.8
323.39 K, 9000 kPa | 140.42 ± 2.8
333.64 K, 1050 kPa | 151.06 ± 3
333.65 K, 10550 kPa | 143.33 ± 2.8
333.65 K, 10920 kPa | 143.21 ± 2.8
333.66 K, 5960 kPa | 145.65 ± 2.9
333.66 K, 11520 kPa | 143.15 ± 2.8
333.67 K, 4020 kPa | 147.05 ± 3
333.67 K, 4480 kPa | 146.76 ± 3
333.67 K, 9460 kPa | 143.5 ± 2.9
333.67 K, 11930 kPa | 143.15 ± 2.8
333.68 K, 10010 kPa | 143.62 ± 2.9
333.69 K, 1530 kPa | 150.48 ± 3
333.69 K, 5010 kPa | 146.41 ± 3
333.69 K, 7030 kPa | 145.31 ± 2.9
333.7 K, 5530 kPa | 146.12 ± 2.9
333.7 K, 6520 kPa | 145.54 ± 2.9
333.71 K, 3530 kPa | 147.63 ± 3
333.71 K, 8510 kPa | 144.43 ± 2.9
333.72 K, 2020 kPa | 149.84 ± 3
333.72 K, 2520 kPa | 149.2 ± 3
333.72 K, 8970 kPa | 144.38 ± 2.9
333.73 K, 3050 kPa | 148.79 ± 3
333.73 K, 7550 kPa | 145.13 ± 2.9
333.74 K, 8040 kPa | 145.13 ± 2.9
343.71 K, 1520 kPa | 159.49 ± 3.2
343.76 K, 2030 kPa | 157.92 ± 3.1
343.79 K, 3510 kPa | 155.13 ± 3.1
343.81 K, 2530 kPa | 157.34 ± 3.1
343.81 K, 3030 kPa | 155.65 ± 3.1
343.83 K, 4010 kPa | 154.02 ± 3.1
343.84 K, 5010 kPa | 153.09 ± 3.1
343.85 K, 4530 kPa | 153.62 ± 3.1
343.85 K, 6000 kPa | 151.06 ± 3
343.85 K, 7500 kPa | 149.49 ± 3
343.85 K, 8000 kPa | 148.27 ± 3
343.85 K, 8500 kPa | 147.98 ± 3
343.85 K, 10990 kPa | 145.77 ± 2.9
343.85 K, 12010 kPa | 145.07 ± 2.9
343.86 K, 5490 kPa | 151.93 ± 3
343.86 K, 6530 kPa | 150.36 ± 3
343.86 K, 10020 kPa | 146.82 ± 3
343.86 K, 11480 kPa | 145.48 ± 2.9
343.87 K, 9000 kPa | 147.51 ± 3
343.87 K, 10510 kPa | 146.47 ± 3
343.88 K, 7020 kPa | 150.07 ± 3
343.88 K, 9490 kPa | 147.4 ± 3
353.82 K, 2510 kPa | 163.9 ± 3.3
353.85 K, 3020 kPa | 162.57 ± 3.3
353.85 K, 9000 kPa | 152.16 ± 3.1
353.85 K, 9500 kPa | 151.7 ± 3
353.86 K, 4510 kPa | 158.62 ± 3.2
353.87 K, 4990 kPa | 158.09 ± 3.2
353.87 K, 6010 kPa | 156.06 ± 3.1
353.87 K, 7000 kPa | 153.97 ± 3.1
353.87 K, 8520 kPa | 152.22 ± 3.1
353.87 K, 10000 kPa | 151.35 ± 3
353.87 K, 10510 kPa | 151 ± 3
